Results reported in patent publication US7173004B2, “Macrocyclic isoquinoline peptide inhibitors of hepatitis C virus” (Bristol-Myers Squibb Company, priority 2003, dated 2007).
Structures can show the parent of a compound that is named as a salt.

Test system: HCV replicon (HCV 1b-377-neo replicon cells, Huh7)
Experiment: HCV replicon cell-based FRET assay
Settings: Hepatitis C virus, Huh-7
Description: HCV Replion assays were utilized in the present invention, and were prepared, conducted and validated as follows:
An HCV replicon whole cell system was established as described by Lohmann V, Korner F, Koch J, Herian U, Theilmann L, Bartenschlager R., Science 285(5424): 110–3 (1999). This system enabled us to evaluate the effects of our HCV Protease compounds on HCV RNA replication. Briefly, using the HCV strain 1B sequence described in the Lohmann paper (Assession number: AJ238799), an HCV cDNA was synthesized by Operon Technologies, Inc. (Alameda, Calif.), and the full-length replicon was then assembled in plasmid pGem9zf(+) (Promega, Madison, Wis.) using standard molecular biology techniques. The replicon consists of (i) the HCV 5′ UTR fused to the first 12 amino acids of the capsid protein, (ii) the neomycin phosphotransferase gene (neo), (iii) the IRES from encephalomyocarditis virus (EMCV), and (iv) HCV NS3 to NS5B genes and the HCV 3′ UTR. Plasmid DNAs were linearized with ScaI and RNA transcripts were synthesized in vitro using the T7 MegaScript transcription kit (Ambion, Austin, Tex.) according to manufacturer's directions. To generate cell lines, 4×10^6 Huh-7 cells (kindly provided by R. Bartenschlager and available from Health Science Research Resources Bank, Japan Health Sciences Foundation) were electroporated (GenePulser System, Bio-Rad) with 10 microgram(“μg”) of RNA transcript and plated into 100-mm dishes. After 24 h, selective media containing 1.0 milligrams/milliliter (“mg/ml”) G418 was added and media was changed every 3 to 5 days. Approximately 4 weeks after electroporation, small colonies were visible which were isolated and expanded for further analysis. These cell lines were maintained at 37° C., 5% CO2, 100% relative humidity in DMEM (Cat# 11965-084) Gibco-BRL, Rockville, Md., with 10% heat inactivated calf serum (Sigma), 10 ml of 100× penicillin/streptomycin (Cat# 15140-122) Gibco-BRL, Rockville, Md., Geneticin (Cat# 10131-027) Gibco-BRL, Rockville, Md. at 1 mg/ml. One of the cell lines (deposited as ATCC Accession No. PTA-4583 in the American Type Culture Collection) which had approximately 3,000 copies of HCV replicon RNA/cell was used for development of the assay (HCV 1b-377-neo replicon cells).
Huh7 cells, constitutively expressing the HCV replicon, were grown in Dulbecco's Modified Eagle Media (DMEM) containing 10% Fetal calf serum (FCS) and 1 mg/ml G418 (Gibco-BRL). Cells were seeded the night before (1.5×10^4 cells/well) in 96-well tissue-culture sterile plates. Compound and no compound controls were prepared in DMEM containing 4% FCS, 1:100 Penicillin/Streptomysin, 1:100 L-glutamine and 5% DMSO in the dilution plate (0.5% DMSO final concentration in the assay). Compound/DMSO mixes were added to the cells and incubated for 4 days at 37° C. After 4 days, cells were first assessed for cytotoxicity using alamar Blue (Trek Diagnotstic Systems) for a CC50 reading. The toxicity of compound (CC50) was determined by adding 1/10th volume of alamar Blue to the media incubating the cells. After 4 hr, the fluorescence signal from each well was read, with an excitation wavelength at 530 nm and an emission wavelength of 580 nm, using the Cytofluor Series 4000 (Perspective Biosystems). Plates were then rinsed thoroughly with Phosphate-Buffered Saline (PBS) (3 times 150 μl). The cells were lysed with 25 μl of a lysis assay reagent containing an HCV protease substrate (5× cell Luciferase cell culture lysis reagent (Promega #E153A) diluted to 1× with distilled water, NaCl added to 150 mM final, the FRET peptide diluted to 10 μM final from a 2 mM stock in 100% DMSO). The HCV protease substrate (FRET peptide; AnaSpec, Inc. cat #22991, described by Taliani et al. in Anal. Biochem. 240(2):60–67 (1996)) contains a fluorescence donor, EDANS, near one end of the peptide and an acceptor, DABCYL, near the other end. […]

**Q.** How did the EC50 turn out when `CC(C)(C)OC(=O)NC1CCCCCC=CC2CC2(C(=O)NS(=O)(=O)C2CC2)NC(=O)C2CC(Oc3nc(Cl)cc4ccccc34)CN2C1=O` (stereo not drawn) [Compound 57] was run?
**A.** < 50 nM

**Q.** With `COc1ccc2c(OC3CC4C(=O)NC5(C(=O)O)CC5C=CCCCCCC(NC(=O)OC(C)(C)C)C(=O)N4C3)nccc2c1` (stereo not drawn) [Compound 17A] as the molecule, how does the EC50 read?
**A.** 50 to 500 nM

**Q.** How did the EC50 turn out when `COc1ccc2c(OC3CC4C(=O)NC5(C(=O)O)CC5C=CCCCSCC(NC(=O)OC(C)(C)C)C(=O)N4C3)nccc2c1` (stereo not drawn) [Compound 18A, 14-tert-Butoxycarbonylamino-18-(6-methoxy-isoquinolin-1-yloxy)-2,15-dioxo-12-thia-3,16-diaza-tricyclo[14.3.0.0^4,6]nonadec-7-ene-4-carboxylic acid] was run?
**A.** 500 to 5000 nM

**Q.** How did the EC50 turn out when `COCC(=O)NC1CCCCCC=CC2CC2(C(=O)NS(=O)(=O)C2CC2)NC(=O)C2CC(Oc3nccc4ccccc34)CN2C1=O` (stereo not drawn) [Compound 24] was run?
**A.** 50 to 500 nM

**Q.** `CCCC1(S(=O)(=O)NC(=O)[C@@]23C[C@H]2CCCCCCC[C@H](NC(=O)OC(C)(C)C)C(=O)N2C[C@H](Oc4nccc5ccccc45)C[C@H]2C(=O)N3)CC1` [Compound 7, [18-(Isoquinolin-1-yloxy)-2,15-dioxo-4-(1-propyl-cyclopropanesulfonylaminocarbonyl)-3,16-diaza-tricyclo[14.3.0.0^4,6]nonadec-14-yl]-carbamic acid tert-butyl ester] was tested. Which EC50 did it give?
**A.** < 50 nM

**Q.** Which EC50 does the source give for `CCC1(S(=O)(=O)NC(=O)C23CC2C=CCOCCCC(NC(=O)OC(C)(C)C)C(=O)N2CC(Oc4nccc5cc(OC)ccc45)CC2C(=O)N3)CC1` (stereo not drawn) [Compound 30] here?
**A.** < 50 nM

**Q.** How did the EC50 turn out when `CC1(OC(=O)NC2CCCCCC=CC3CC3(C(=O)NS(=O)(=O)C3CC3)NC(=O)C3CC(Oc4nccc5ccccc45)CN3C2=O)CC1` (stereo not drawn) [Compound 59] was run?
**A.** < 50 nM

**Q.** With `COc1ccc2c(OC3CC4C(=O)NC5(C(=O)NS(=O)(=O)C6(C)CC6)CC5C=CCCCSCC(NC(=O)NC5CCCC5)C(=O)N4C3)nccc2c1` (stereo not drawn) [Compound 43] as the molecule, how does the EC50 read?
**A.** < 50 nM

**Q.** Which EC50 does the source give for `O=C(NC1CCCCCC=CC2CC2(C(=O)NS(=O)(=O)C2CC2)NC(=O)C2CC(Oc3nccc4ccccc34)CN2C1=O)OC1CCCC1` (stereo not drawn) [Compound 20] here?
**A.** < 50 nM

**Q.** With `CC(C)(CCl)OC(=O)NC1CCCCCC=CC2CC2(C(=O)NS(=O)(=O)C2CC2)NC(=O)C2CC(Oc3nccc4ccccc34)CN2C1=O` (stereo not drawn) [Compound 52] as the molecule, how does the EC50 read?
**A.** < 50 nM

**Q.** Which EC50 does the source give for `COc1ccc2c(O[C@@H]3C[C@H]4C(=O)N[C@]5(C(=O)NS(=O)(=O)C6CC6)C[C@H]5/C=C\CCCCC[C@H](NC(=O)OC(C)(C)C)C(=O)N4C3)nccc2c1` [Compound 17B, [4-Cyclopropanesulfonylaminocarbonyl-18-(6-methoxy-isoquinolin-1-yloxy)-2,15-dioxo-3,16-diaza-tricyclo[14.3.0.0^4,6]nonadec-7-en-14-yl]-carbamic acid tert-butyl ester] here?
**A.** < 50 nM

**Q.** For `CCC1(S(=O)(=O)NC(=O)C23CC2C=CCCCOC(C)C(NC(=O)NC2CCCC2)C(=O)N2CC(Oc4nccc5cc(OC)ccc45)CC2C(=O)N3)CC1` (stereo not drawn) [Compound 73], which EC50 is on record?
**A.** 50 to 500 nM

**Q.** Which EC50 does the source give for `COc1ccc2c(OC3CC4C(=O)NC5(C(=O)NS(=O)(=O)C6(C)CC6)CC5C=CCCCOC(C)C(NC(=O)OC(C)C)C(=O)N4C3)nccc2c1` (stereo not drawn) [Compound 68] here?
**A.** 50 to 500 nM

**Q.** How did the EC50 turn out when `CC(C)(C)COC(=O)N[C@H]1CCCCC/C=C\[C@@H]2C[C@@]2(C(=O)NS(=O)(=O)C2CC2)NC(=O)[C@@H]2C[C@@H](Oc3nccc4ccccc34)CN2C1=O` [Compound 13, [4-Cyclopropanesulfonylaminocarbonyl-18-(isoquinolin-1-yloxy)-2,15-dioxo-3,16-diaza-tricyclo[14.3.0.0^4,6]nonadec-7-en-14-yl]-carbamic acid 2,2-dimethyl-propyl ester] was run?
**A.** < 50 nM

**Q.** With `CC(C)(C)OC(=O)N[C@H]1CCCCC/C=C\[C@@H]2C[C@@]2(C(=O)NS(C)(=O)=O)NC(=O)[C@@H]2C[C@@H](Oc3nccc4ccccc34)CN2C1=O` [Compound 2, [18-(Isoquinolin-1-yloxy)-4-methanesulfonylaminocarbonyl-2,15-dioxo-3,16-diaza-tricyclo[14.3.0.0^4,6]nonadec-7-en-14-yl]-carbamic acid tert-butyl ester] as the molecule, how does the EC50 read?
**A.** 50 to 500 nM

**Q.** Which EC50 does the source give for `CC(C)OC(=O)N[C@H]1CCCCC/C=C\[C@@H]2C[C@@]2(C(=O)NS(=O)(=O)C2CC2)NC(=O)[C@@H]2C[C@@H](Oc3nccc4ccccc34)CN2C1=O` [Compound 16, [4-Cyclopropanesulfonylaminocarbonyl-18-(isoquinolin-1-yloxy)-2,15-dioxo-3,16-diaza-tricyclo[14.3.0.0^4,6]nonadec-7-en-14-yl]-carbamic acid isopropyl ester] here?
**A.** < 50 nM

**Q.** Which EC50 does the source give for `COc1ccc2c(OC3CC4C(=O)NC5(C(=O)NS(=O)(=O)C6CC6)CC5C=CCOCCCC(NC(=O)NC5CCCC5)C(=O)N4C3)nccc2c1` (stereo not drawn) [Compound 33] here?
**A.** < 50 nM

**Q.** How did the EC50 turn out when `COc1ccc2c(OC3CC4C(=O)NC5(C(=O)NS(=O)(=O)C6(C)CC6)CC5C=CCCCCCC(NC(=O)OC(C)(C)C)C(=O)N4C3)nccc2c1` (stereo not drawn) [Compound 53] was run?
**A.** < 50 nM

**Q.** With `CCC1(S(=O)(=O)NC(=O)C23CC2C=CCCCOC(C)C(NC(=O)OCC(C)(C)C)C(=O)N2CC(Oc4nccc5cc(OC)ccc45)CC2C(=O)N3)CC1` (stereo not drawn) [Compound 71] as the molecule, how does the EC50 read?
**A.** 50 to 500 nM

**Q.** `COc1ccc2c(OC3CC4C(=O)NC5(C(=O)NS(=O)(=O)C6(C)CC6)CC5C=CCCCOC(C)C(NC(=O)OC(C)(C)C)C(=O)N4C3)nccc2c1` (stereo not drawn) [Compound 66] was tested. Which EC50 did it give?
**A.** 50 to 500 nM

**Q.** With `CCC1(S(=O)(=O)NC(=O)C23CC2C=CCCC[S+]([O-])CC(NC(=O)OC(C)(C)C)C(=O)N2CC(Oc4nccc5cc(OC)ccc45)CC2C(=O)N3)CC1` (stereo not drawn) [Compound 47] as the molecule, how does the EC50 read?
**A.** < 50 nM

**Q.** `N[C@H]1CCCCC/C=C\[C@@H]2C[C@@]2(C(=O)NS(=O)(=O)C2CC2)NC(=O)[C@@H]2C[C@@H](Oc3nccc4ccccc34)CN2C1=O` [Compound 11, Cyclopropanesulfonic acid [14-amino-18-(isoquinolin-1-yloxy)-2,15-dioxo-3,16-diaza-tricyclo[14.3.0.0^4,6]nonadec-7-ene-4-carbonyl]-amide bis hydrochloride] was tested. Which EC50 did it give?
**A.** 50 to 500 nM

**Q.** With `COc1ccc2c(OC3CC4C(=O)NC5(C(=O)NS(=O)(=O)C6CC6)CC5C=CCCCOC(C)C(NC(=O)OC(C)(C)C)C(=O)N4C3)nccc2c1` (stereo not drawn) [Compound 62] as the molecule, how does the EC50 read?
**A.** 50 to 500 nM

**Q.** `COc1ccc2c(OC3CC4C(=O)NC5(C(=O)NS(=O)(=O)C6CC6)CC5C=CCOCCCC(NC(=O)OC(C)C)C(=O)N4C3)nccc2c1` (stereo not drawn) [Compound 31] was tested. Which EC50 did it give?
**A.** < 50 nM

**Q.** Which EC50 does the source give for `COc1ccc2c(OC3CC4C(=O)NC5(C(=O)NS(=O)(=O)C6(C)CC6)CC5C=CCCCS(=O)(=O)CC(NC(=O)OC(C)(C)C)C(=O)N4C3)nccc2c1` (stereo not drawn) [Compound 49] here?
**A.** 500 to 5000 nM

**Q.** Which EC50 does the source give for `CC(C)(OC(=O)NC1CCCCCC=CC2CC2(C(=O)NS(=O)(=O)C2CC2)NC(=O)C2CC(Oc3nccc4ccccc34)CN2C1=O)C(F)(F)F` (stereo not drawn) [Compound 51] here?
**A.** < 50 nM

**Q.** For `O=C(N[C@H]1CCCCC/C=C\[C@@H]2C[C@@]2(C(=O)NS(=O)(=O)C2CC2)NC(=O)[C@@H]2C[C@@H](Oc3nccc4ccccc34)CN2C1=O)O[C@H]1CCOC1` [Compound 15, [4-Cyclopropanesulfonylaminocarbonyl-18-(isoquinolin-1-yloxy)-2,15-dioxo-3,16-diaza-tricyclo[14.3.0.0^4,6]nonadec-7-en-14-yl]-carbamic acid tetrahydro-furan-3-yl ester], which EC50 is on record?
**A.** < 50 nM

**Q.** Which EC50 does the source give for `CCC1(S(=O)(=O)NC(=O)C23CC2C=CCOCCCC(NC(=O)OC(C)C)C(=O)N2CC(Oc4nccc5cc(OC)ccc45)CC2C(=O)N3)CC1` (stereo not drawn) [Compound 37] here?
**A.** < 50 nM

**Q.** With `CCC1(S(=O)(=O)NC(=O)C23CC2C=CCCCCCC(NC(=O)OC(C)(C)C)C(=O)N2CC(Oc4nccc5cc(OC)ccc45)CC2C(=O)N3)CC1` (stereo not drawn) [Compound 54] as the molecule, how does the EC50 read?
**A.** < 50 nM

Same assay, conditions: Hepatitis C virus, Huh-7; read-out: EC50 value in the replicon assay

**Q.** How did the EC50 turn out when `CC(C)(C)OC(=O)N[C@H]1CCCCC/C=C\[C@@H]2C[C@@]2(C(=O)NS(C)(=O)=O)NC(=O)[C@@H]2C[C@@H](Oc3nccc4ccccc34)CN2C1=O` [Compound 2, [18-(Isoquinolin-1-yloxy)-4-methanesulfonylaminocarbonyl-2,15-dioxo-3,16-diaza-tricyclo[14.3.0.0^4,6]nonadec-7-en-14-yl]-carbamic acid tert-butyl ester] was run?
**A.** 146 nM
